Assay [1] can be described thus: DPPH assay (radical scavenging). The conditions noted are these: 95% confidence interval in parenthesis; linear regression, mean of 3–4 assays. A general note: The DPPH test is a chemical assay of radical scavenging.
Protocol: The test was based on the protocol of Duarte-Almeida et al. [25], with some modifications. An ethanolic solution of 2,2-diphenyl-1-picryl hydrazyl (DPPH) (Sigma, St. Louis, MO, USA) was prepared in order to produce an absorbance between 0.8 and 0.99 at 517 nm. One hundred microliters of each extract diluted in ethanol (Synth, Diadema, Brazil) at initial concentrations of 0.004, 0.01, 0.04, 0.1, 0.4 and 1.0 mg/mL were pipetted in a cuvette and after the addition of 900 μL of DPPH the cuvette was placed in a spectrophotometer (PG Instruments LTD, Leicestershire, United Kingdom) and read during 2 min at 517 nm. Ethanol (vehicle) was used as control and rutin (Acros Organics, New Jersey, USA) as positive control. The percentage of DPPH scavenger (S) was calculated by the formula: SDPPH = [(Ac - As)/Ac] × 100, where Ac = absorbance for the control and As = absorbance for the sample.
The statistical analysis was carried out using the Statistica® and Graph Pad Prism® software. The EC50 for DPPH and IC50 for acetylcholinesterase were calculated by linear regression using the mean of scavenge or inhibition for each concentration of the tested drugs. […] We adopted a p value of 0.05 as statistically significant.
The subject of the next assay is mice. Nature of the assay: Classical fear conditioning, scopolamine-induced amnesia. To be noted: scopolamine 2 mg/kg i.p., not statistically significant. The format is in vivo. On the procedure: Male albino Swiss mice (30-50 g) and male Wistar rats (300-450 g), 3–4 months old, from our vivarium (Department of Psychobiology, UNIFESP) were housed in rooms with 12 h light-dark circle, controlled temperature (21 ± 2 °C), with filtered tap water and food (Nuvilab, Brazil) ad libitum, except during the experiments. The animals were kept in polypropylene cages (4–5 animals each) with pine shavings as bedding material. […] The animals were euthanized in CO2 chamber or by decapitation (in the case of stress by immobilization test). The protocols followed the International Guiding Principles for Biomedical Research Involving Animals and were approved by UNIFESP ethics committee (Comissão de Ética no Uso de Animais, from Universidade Federal de São Paulo, São Paulo, Brazil) - protocol #0752/07.
On the training day, the animals (except the negative control group) received scopolamine (2 mg/kg, i.p. - Sigma, St. Louis, MO, USA) in 0.9% saline 30 min after the extract treatment and 30 min later were placed individually in the context cage dotted with some visual cues. After 2 min of habituation, three electrical shocks (0.3 mA, 1 s duration and interval of 10s) were delivered to the paws of the animal (adapted from Soeiro et al.). […]

For `C[C@@H]1O[C@@H](OC[C@H]2O[C@@H](Oc3c(-c4ccc(O)c(O)c4)oc4cc(O)cc(O)c4c3=O)[C@H](O)[C@@H](O)[C@@H]2O)[C@H](O)[C@H](O)[C@H]1O` [Rutin, rutin], in assay [1], the “DPPH scavenging EC50” value is on record as 44 (9–216) μg/mL.
As for `CN1[C@@H]2C[C@@H](OC(=O)[C@H](CO)c3ccccc3)C[C@H]1[C@@H]1O[C@@H]12` [scopolamine], the “Reduction of freezing time compared with control mice that did not receive scopolamine” value in the assay with mice was determined as 40.9%.

The record behind these values is publication PMC5987406, “Antioxidant, anticholinesterase and antifatigue effects of Trichilia catigua (catuaba)” (BMC Complementary and Alternative Medicine, 2018).
